Assay results taken from paper PMC10227015, “From a drug repositioning to a structure-based drug design approach to tackle acute lymphoblastic leukemia” (Nature Communications, 2023).
Entries after “also recorded” stand apart in the source; their conditions may differ. Read-outs that look alike come from different tables or passages of the source.

Legend:
CCRF-CEM cell line [1] = assay: dCK cellular assay: CCRF-CEM proliferation in the presence of dT and dC; format: cell-based, human
Summary of the method: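 Two conditions in T-ALL CCRF-CEM cells: compound only, and compound with thymidine blocking de novo synthesis and deoxycytidine rescuing via dCK. Metabolic dye fluorescence (560/590 nm) gives % proliferation vs DMSO; IC50s, mean ± SD of at least three triplicate runs.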

CCRF-CEM cell line [2] = assay: CCRF-CEM proliferation, compound alone (nonspecific toxicity); format: cell-based, human
Description: The dCK cellular assay was set up to assess the ability to inhibit dCK activity in a cellular model. The model was developed with a T-cell acute lymphoblastic leukemia cell line (CCRF-CEM), because of its high dependence on the SP, thus on dCK activity. Cellular assays were performed to assess the inhibition of cell proliferation under two conditions: (i) in the presence of the compound alone to determine the nonspecific effect on cells, independent of dCK (nonspecific toxicity) and (ii) in the presence of an inhibitor of the DNP to determine the ability of compounds to inhibit dCK and decrease tumor proliferation (activity on dCK). The inhibitor of the DNP chosen for the experiments was thymidine (dT), a physiological inhibitor of ribonucleotide reductase which arrests cell proliferation in phase S. The dTTP produced via thymidine kinase from dT acts as a RNR inhibitor by an allosteric regulation of the R1 subunit. The addition of the nucleoside deoxycytidine (dC) in the medium allows the rescue of cell proliferation by passing only through the salvage pathway, mediated by dCK. dC needs to be added exogenously to mimic physiological concentrations because it is not present in the cell culture medium, on the contrary to mouse model, in which it is naturally present in the serum. Therefore, cell proliferation under these conditions (+dT +dC) is dCK dependent and it is possible to determine the IC50 of dCK inhibitors on the inhibition of cell proliferation. Results are expressed as % cell proliferation relative to the control with DMSO.
The amount of reduced dye formed by metabolically active cells was quantified by its fluorescence measured at 560 nm (excitation) and 590 nm (emission) in a microplate reader (CLARIOstar, BMG Labtech). A blank well without cells was used as a background control. Each experiment was performed at least three times (with technical triplicates) and data are presented as the mean ± SD.

[3] = Acute in vivo toxicity, unique IP injection; conditions: male, mouse, in vivo; Swiss mice, IP, unique injection; read-out: Maximum tolerated dose
Description: (§1) To evaluate the in vivo toxicity selected compounds were injected by intraperitoneal (IP) route to 7 weeks-old male Swiss mice (n = 2) at 10, 20, 40, 50, or 80 mg/kg by unique injection. […] Compounds were administered in their hydrochloride salt forms. Mice were then observed closely for the next one hour, then every hour for 8 h. Observations were continued for 72 h for signs of pain or toxicity such as change in the behavior and in the activity in the cage (decreased locomotion) or change in the appearance (curved back, eyes half-closed, bristle hair, hips hollowed out). In vivo toxicity of compound OR0642 at 40 and 80 mg/kg was also assessed in the NOD-SCID-IL2Rγc null (NSG) mice model for 2 weeks in the presence and absence of dT to confirm the safety of the compound. […]. Blood samples were collected and spun at 10,000 × g prior to collecting the plasma supernatants. All plasma samples were frozen at −80 °C before sample processing. 13 μl of each plasma sample was mixed with 33 μl of acetonitrile to precipitate proteins and extract the compound. Samples were vortexed for 5 min and then placed in an ultrasonic bath for 1 min. The precipitated proteins were sedimented by centrifugation (15,000 × g, 5 min, 16 °C). Supernatants were transferred to a microplate to be analyzed by LC–MS/MS. All samples were analyzed with a UHPLC coupled to a Shimadzu LC-MS 8030 triple quadrupole. The solutions of a standard range, prepared with plasma from untreated mice, were analyzed in the same series of injections.

[4] = Plasma pharmacokinetics after IP administration; format: in vivo; conditions: male, Swiss, mouse, mice
Description: as §1

dCK-C3S-S74E [5] = assay: Thermal shift assay (TSA); conditions: for ΔTm, dCK thermal stabilization (TSA): 5 μM protein, 50 μM compound; for THERMAL SHIFT ASSAY +Tm (°): mean ± SD
dCK-C3S-S74E [6] = assay: Isothermal titration calorimetry (ITC); format: binding, human; conditions: 25 °C
Source text: BL21 pRIL Escherichia coli cells were transformed with dCK-plasmids (dCK-C4S-S74E (for crystallization assays) and dCK-C3S-S74E (for TSA, enzymatic and ITC assays)). Protein dCK-C4S-S74E used for crystallization assays contained four mutations in order to generate better quality crystals (four solvent-exposed cysteine residues were mutated to serine; C9S, C45S, C59S and C146S). Protein dCK-C3S-S74E used for other assays contained only three mutated cysteines. The S74E mutation mimics the phosphorylated state of this serine, which favors the open conformation of the enzyme, making it competent for nucleoside binding[45] to evaluate the binding affinity with compounds. E. coli cells were grown in LB media containing 100 μg/ml ampicillin and 34 μg/ml chloramphenicol at 18 °C for 20 h after induction with 1 mM IPTG.
For binding assays (TSA, ITC and crystallography) cells were re-suspended in 50 mM TRIS, pH 8, 500 mM NaCl, 30 mM imidazole and 10% glycerol buffer and one EDTA free anti-protease tablet was added (Roche). After sonication and centrifugation (30,000 × g), the supernatant was loaded on a 5 ml HisTrap FF column (GE healthcare) pre-equilibrated with resuspension buffer. Protein was then eluted by resuspension buffer containing 500 mM imidazole. Protein eluted fractions were mixed and concentrated. […]

Chain of dCK-C3S-S74E (P27707 whole entry S74E, form open): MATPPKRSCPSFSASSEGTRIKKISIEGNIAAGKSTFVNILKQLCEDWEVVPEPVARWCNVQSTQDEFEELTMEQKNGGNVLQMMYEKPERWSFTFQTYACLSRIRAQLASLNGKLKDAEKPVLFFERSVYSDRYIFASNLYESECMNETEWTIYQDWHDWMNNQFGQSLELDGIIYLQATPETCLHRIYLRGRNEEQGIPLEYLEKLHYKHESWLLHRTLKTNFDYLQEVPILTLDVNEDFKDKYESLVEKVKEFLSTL

SMILES: CCCN(c1nc(-c2nc(N)cc(N)n2)cs1)c1cc(-c2ccc(S(=O)(=O)N3CCN(C)CC3)cc2C(F)(F)F)ccc1C [OR0642]
- activity at 10 pM (CCRF-CEM cell line [1]; Homo sapiens, CCRF-CEM, 0.01 nM, dT 200 µM + dC 1 µM, read-out: Cell proliferation of the CCRF-CEM cell line Mean (% prolif)): 90.6%
- activity at 30 pM (CCRF-CEM cell line [1]; Homo sapiens, CCRF-CEM, 0.03 nM, dT 200 µM + dC 1 µM, read-out: Cell proliferation of the CCRF-CEM cell line Mean (% prolif)): 93.3%
- activity at 91 pM (CCRF-CEM cell line [1]; Homo sapiens, CCRF-CEM, 0.091 nM, dT 200 µM + dC 1 µM, read-out: Cell proliferation of the CCRF-CEM cell line Mean (% prolif)): 88.7%
- activity at 0.00027 µM (CCRF-CEM cell line [1]; Homo sapiens, CCRF-CEM, 0.27 nM, dT 200 µM + dC 1 µM, read-out: Cell proliferation of the CCRF-CEM cell line Mean (% prolif)): 87.2%
- activity at 0.00082 µM (CCRF-CEM cell line [1]; Homo sapiens, CCRF-CEM, 0.82 nM, dT 200 µM + dC 1 µM, read-out: Cell proliferation of the CCRF-CEM cell line Mean (% prolif)): 79.7%
- activity at 0.0025 µM (CCRF-CEM cell line [1]; Homo sapiens, CCRF-CEM, 2.5 nM, dT 200 µM + dC 1 µM, read-out: Cell proliferation of the CCRF-CEM cell line Mean (% prolif)): 68.2%
- activity at 0.0074 µM (CCRF-CEM cell line [1]; Homo sapiens, CCRF-CEM, 7.4 nM, dT 200 µM + dC 1 µM, read-out: Cell proliferation of the CCRF-CEM cell line Mean (% prolif)): 43.1%
- activity at 0.022 µM (CCRF-CEM cell line [1]; Homo sapiens, CCRF-CEM, 22 nM, dT 200 µM + dC 1 µM, read-out: Cell proliferation of the CCRF-CEM cell line Mean (% prolif)): 24.9%
- activity at 0.067 µM (CCRF-CEM cell line [1]; Homo sapiens, CCRF-CEM, 67 nM, dT 200 µM + dC 1 µM, read-out: Cell proliferation of the CCRF-CEM cell line Mean (% prolif)): 18%
- activity at 0.2 µM (CCRF-CEM cell line [1]; Homo sapiens, CCRF-CEM, 200 nM, dT 200 µM + dC 1 µM, read-out: Cell proliferation of the CCRF-CEM cell line Mean (% prolif)): 14.6%
- IC50 (CCRF-CEM cell line [1]; Homo sapiens, CCRF-CEM, dT 200 µM + dC 1 µM, 72 h, read-out: IC50 cell proliferation (dCK cellular assay)): 2.2 nM
- increased potency in the cell proliferation assay (CCRF-CEM cell line [1]; compared with dCKi1): more than 1000 times
- potency increase (CCRF-CEM cell line [1]; compared with masitinib): more than 1000 times
- nonspecific cellular toxicity (CCRF-CEM cell line [2]; CCRF-CEM, absence of dT + dC): lack of non-specific toxicity; also recorded: absence of nonspecific toxicity
- MTD at 72 h [3]: > 80 mg/kg
- Cmax ([4]; dose 20 mg/Kg): 0.8 ± 0.2 µM
- Tmax ([4]; dose 20 mg/Kg): 2 h
- half-life ([4]; dose 20 mg/Kg, read-out: T ½ (converted)): 7 ± 3 h
- Cmax ([4]; dose 40 mg/Kg): 4.1 ± 1.5 µM
- Tmax ([4]; dose 40 mg/Kg): 5 h
- half-life ([4]; dose 40 mg/Kg, read-out: T ½ (converted)): > 8 h
- half-life ([4]; read-out: half-life): > 7 h
- ΔTm, dCK thermal stabilization (TSA) (dCK-C3S-S74E [5]): 22.2 °C
- ΔTm (º) (TSA) (dCK-C3S-S74E [5]; Figure 2a, mean): 22.23 º
- Thermal Shift Assay Mean (ΔTm (º)) (dCK-C3S-S74E [5]; Figure 2b): 22.2 º
- improved dCK thermal stability (dCK-C3S-S74E [5]; compared to dCKi1): 7.9 °C
- improved dCK thermal stability (dCK-C3S-S74E [5]; compared to masitinib): 15 °C
- THERMAL SHIFT ASSAY +Tm (°) (dCK-C3S-S74E [5]): 22.2 ± 0.9 °

SMILES: Cc1ccc(NC(=O)c2ccc(CN3CCN(C)CC3)cc2)cc1Nc1nc(-c2nc(N)cc(N)n2)cs1 [dCKi2, N-(3-((4-(4,6-diaminopyrimidin-2-yl)thiazol-2-yl)amino)-4-methylphenyl)-4-((4-methylpiperazin-1-yl)methyl)benzamide]
- Kd (dCK-C3S-S74E [6]): 0.037 µM
- activity at 0.078 µM (CCRF-CEM cell line [1]; Homo sapiens, CCRF-CEM, 78 nM, dT 200 µM + dC 1 µM, read-out: Cell proliferation of the CCRF-CEM cell line Mean (% prolif)): 95.9%
- activity at 0.156 µM (CCRF-CEM cell line [1]; Homo sapiens, CCRF-CEM, 156 nM, dT 200 µM + dC 1 µM, read-out: Cell proliferation of the CCRF-CEM cell line Mean (% prolif)): 91.9%
- activity at 0.312 µM (CCRF-CEM cell line [1]; Homo sapiens, CCRF-CEM, 312 nM, dT 200 µM + dC 1 µM, read-out: Cell proliferation of the CCRF-CEM cell line Mean (% prolif)): 100%
- activity at 0.625 µM (CCRF-CEM cell line [1]; Homo sapiens, CCRF-CEM, 625 nM, dT 200 µM + dC 1 µM, read-out: Cell proliferation of the CCRF-CEM cell line Mean (% prolif)): 95.6%
- activity at 1.25 µM (CCRF-CEM cell line [1]; Homo sapiens, CCRF-CEM, 1250 nM, dT 200 µM + dC 1 µM, read-out: Cell proliferation of the CCRF-CEM cell line Mean (% prolif)): 94.5%
- activity at 2.5 µM (CCRF-CEM cell line [1]; Homo sapiens, CCRF-CEM, 2500 nM, dT 200 µM + dC 1 µM, read-out: Cell proliferation of the CCRF-CEM cell line Mean (% prolif)): 86%
- activity at 5 µM (CCRF-CEM cell line [1]; Homo sapiens, CCRF-CEM, 5000 nM, dT 200 µM + dC 1 µM, read-out: Cell proliferation of the CCRF-CEM cell line Mean (% prolif)): 58.8%
- activity at 10 µM (CCRF-CEM cell line [1]; Homo sapiens, CCRF-CEM, 10000 nM, dT 200 µM + dC 1 µM, read-out: Cell proliferation of the CCRF-CEM cell line Mean (% prolif)): 29.6%
- activity at 20 µM (CCRF-CEM cell line [1]; Homo sapiens, CCRF-CEM, 20000 nM, dT 200 µM + dC 1 µM, read-out: Cell proliferation of the CCRF-CEM cell line Mean (% prolif)): 14%
- activity at 40 µM (CCRF-CEM cell line [1]; Homo sapiens, CCRF-CEM, 40000 nM, dT 200 µM + dC 1 µM, read-out: Cell proliferation of the CCRF-CEM cell line Mean (% prolif)): 6.8%
- activity at 10 µM (CCRF-CEM cell line [1]; Homo sapiens, CCRF-CEM, compound 10 µM + dT 111 µM + dC 1 µM, 72 h, read-out: Cell proliferation of the CCRF-CEM cell line Mean (% prolif)): 42.3%
- IC50 (CCRF-CEM cell line [1]; Homo sapiens, read-out: dCK CELLULAR ASSAY IC50 (nM), CCRF-CEM, 200 µM dT and 1 µM dC, read-out: dCK […] ASSAY IC50): 8910 ± 3340 nM
- IC50 (CCRF-CEM cell line [1]; Homo sapiens, CCRF-CEM, dT 200 µM + dC 1 µM, 72 h, read-out: IC50 cell proliferation): 8900 nM
- Cell proliferation of the CCRF-CEM cell line Mean (% prolif) (CCRF-CEM cell line [2]; compound 10 µM alone, 72 h): 78.4%
- ΔTm, dCK thermal stabilization (TSA) (dCK-C3S-S74E [5]): 17.3 °C
- Thermal Shift Assay Mean (ΔTm (º)) (dCK-C3S-S74E [5]; Figure 1b): 17.3 º
- THERMAL SHIFT ASSAY +Tm (°) (dCK-C3S-S74E [5]): 17.3 ± 0.2 °
